# From US20250176599A1, “FLAVOR COMPOSITION AND FOOD AND BEVERAGE” (TAKASAGO INTERNATIONAL CORPORATION, priority 2021, published 2025)
# Columns and labels:
# [1] = Sensory evaluation of aqueous solution II containing (E)-2-octenal 10 ppb: off-flavor intensity and masking component intensity; conditions: (E)-2-octenal 10 ppb, average score 0-4
# Method: (§1) In ion-exchanged water, each degradation component was added to achieve the concentrations listed in Table 1, and aqueous solutions I to VI containing these degradation components were prepared.
# (§2) For the aforementioned aqueous solutions containing degradation components, nootkatone was added at the concentrations listed in Table 2 to confirm the intensity of the off-flavor (masking effect) in each sample and the intensity of the masking component itself (the impact on the flavor of the food and/or beverage itself).
# (§3) The test was conducted as follows. Eight experienced panelists were selected to conduct a sensory evaluation. The intensity of the off-flavor of the aqueous solution containing the degradation components derived from unsaturated fatty acids, without added masking components, was set as “Evaluation: 4.” The ion-exchanged water free of any degradation components was set as “Evaluation: 0.” The intensity of the off-flavor (masking effect) of each sample was then relatively evaluated according to the following evaluation criteria.
# (§4) • Off-flavor is strongly sensed: 4 points • Off-flavor is sensed: 3 points • Off-flavor is slightly sensed: 2 points • Off-flavor is barely sensed: 1 point • Off-flavor is not sensed at all: 0 points
# (§5) Also, the intensity of the masking components (impact on the flavor of the food and/or beverage itself) was absolutely evaluated according to the following evaluation criteria.
# (§6) • Masking component is strongly sensed: 4 points • Masking component is sensed: 3 points • Masking component is slightly sensed: 2 points • Masking component is barely sensed: 1 point • Masking component is not sensed at all: 0 points
# [2] = Sensory evaluation of aqueous solution III containing 1-octen-3-one 1 ppb: off-flavor intensity and masking component intensity; conditions: 1-octen-3-one 1 ppb, average score 0-4
# Method: as §1, §2, §3, §4, §5, §6
# [3] = Overall conclusion of the sensory evaluation across aqueous solutions I to VI
# Method: as §1, §2, §3, §4, §5, §6
# [4] = Sensory evaluation of aqueous solution I containing (E)-2-nonenal 1 ppb: off-flavor intensity and masking component intensity; conditions: (E)-2-nonenal 1 ppb, average score 0-4
# Method: as §1, §2, §3, §4, §5, §6
# [5] = Sensory evaluation of aqueous solution VI containing 1,5-octadien-3-ol 10 ppb: off-flavor intensity and masking component intensity; conditions: aqueous solution VI, 1,5-octadien-3-ol 10 ppb, average score 0-4
# Method: as §1, §2, §3, §4, §5, §6
# [6] = Sensory evaluation of aqueous solution IV containing 1,5-octadien-3-one 100 ppt: off-flavor intensity and masking component intensity; conditions: aqueous solution IV, 1,5-octadien-3-one 100 ppt, average score 0-4
# Method: as §1, §2, §3, §4, §5, §6
# [7] = Sensory evaluation of aqueous solution V containing 1-octen-3-ol 10 ppb: off-flavor intensity and masking component intensity; conditions: 1-octen-3-ol 10 ppb, average score 0-4
# Method: as §1, §2, §3, §4, §5, §6
smiles,measurement,setting,value
"C=CC(C)(CCC=C(C)C)OC(=O)CCC (centres unmarked) [Linalyl Butyrate, linalyl butyrate]",Off-Flavor Intensity,[1]; 1 ppb added,2.3 points
same,Off-Flavor Intensity,[1]; 1 ppm added,0.6 points
same,Off-Flavor Intensity,[1]; 5 ppm added,0.4 points
same,Off-Flavor Intensity,[1]; 10 ppb added,1.8 points
same,Off-Flavor Intensity,[1]; 10 ppt added,3.1 points
same,Off-Flavor Intensity,[1]; 50 ppb added,1.5 points
same,Off-Flavor Intensity,[1]; 100 ppb added,1.4 points
same,Off-Flavor Intensity,[1]; 100 ppt added,2.8 points
same,Off-Flavor Intensity,[1]; 500 ppb added,0.9 points
same,Off-Flavor Intensity,[2]; 1 ppb added,2.6 points
same,Off-Flavor Intensity,[2]; 1 ppm added,1.5 points
same,Off-Flavor Intensity,[2]; 5 ppm added,1.0 points
same,Off-Flavor Intensity,[2]; 10 ppb added,2.3 points
same,Off-Flavor Intensity,[2]; 10 ppt added,3.5 points
same,Off-Flavor Intensity,[2]; 50 ppb added,1.9 points
same,Off-Flavor Intensity,[2]; 100 ppb added,1.9 points
same,Off-Flavor Intensity,[2]; 100 ppt added,3.3 points
same,Off-Flavor Intensity,[2]; 500 ppb added,1.8 points
same,"concentration that masks the off-flavor and does not affect the flavor of the food and/or beverage itself, lower limit",[3],≥ 10 ppt
same,"concentration that masks the off-flavor and does not affect the flavor of the food and/or beverage itself, upper limit",[3],≤ 1 ppm
same,Off-Flavor Intensity,[4]; 1 ppb added,2.6 points
same,Off-Flavor Intensity,[4]; 1 ppm added,1.3 points
same,Off-Flavor Intensity,[4]; 5 ppm added,1.0 points
same,Off-Flavor Intensity,[4]; 10 ppb added,2.3 points
same,Off-Flavor Intensity,[4]; 10 ppt added,3.4 points
same,Off-Flavor Intensity,[4]; 50 ppb added,2.0 points
same,Off-Flavor Intensity,[4]; 100 ppb added,1.9 points
same,Off-Flavor Intensity,[4]; 100 ppt added,3.1 points
same,Off-Flavor Intensity,[4]; 500 ppb added,1.3 points
same,Off-Flavor Intensity,[5]; 1 ppb added,2.0 points
same,Off-Flavor Intensity,[5]; 1 ppm added,0.5 points
same,Off-Flavor Intensity,[5]; 5 ppm added,0.1 points
same,Off-Flavor Intensity,[5]; 10 ppb added,1.8 points
same,Off-Flavor Intensity,[5]; 10 ppt added,2.5 points
same,Off-Flavor Intensity,[5]; 50 ppb added,1.5 points
same,Off-Flavor Intensity,[5]; 100 ppb added,1.3 points
same,Off-Flavor Intensity,[5]; 100 ppt added,2.4 points
same,Off-Flavor Intensity,[5]; 500 ppb added,0.9 points
same,Off-Flavor Intensity,[6]; 1 ppb added,2.9 points
same,Off-Flavor Intensity,[6]; 1 ppm added,0.9 points
same,Off-Flavor Intensity,[6]; 5 ppm added,0.9 points
same,Off-Flavor Intensity,[6]; 10 ppb added,2.6 points
same,Off-Flavor Intensity,[6]; 10 ppt added,3.6 points
same,Off-Flavor Intensity,[6]; 50 ppb added,2.1 points
same,Off-Flavor Intensity,[6]; 100 ppb added,1.6 points
same,Off-Flavor Intensity,[6]; 100 ppt added,3.0 points
same,Off-Flavor Intensity,[6]; 500 ppb added,1.3 points
same,Off-Flavor Intensity,[7]; 1 ppb added,2.6 points
same,Off-Flavor Intensity,[7]; 1 ppm added,1.0 points
same,Off-Flavor Intensity,[7]; 5 ppm added,0.8 points
same,Off-Flavor Intensity,[7]; 10 ppb added,2.3 points
same,Off-Flavor Intensity,[7]; 10 ppt added,3.3 points
same,Off-Flavor Intensity,[7]; 50 ppb added,2.1 points
same,Off-Flavor Intensity,[7]; 100 ppb added,1.9 points
same,Off-Flavor Intensity,[7]; 100 ppt added,3.0 points
same,Off-Flavor Intensity,[7]; 500 ppb added,1.3 points
